For one assay, the system named is D54D2 positive amyloid. Briefly: D54D2 amyloid immunohistochemistry in 5×FAD mice. In kind it is in vivo, mouse. The text has this:
It was next sought to understand whether Plx3397 administration-dependent electrophysiological alterations were attributed to changes in amyloid plaque levels. […] In the cuprizone model of demyelination, Plx33977 administration preserved myelin. It was thus considered whether electrophysiological alterations are associated with myelin levels in Plx3397 treated 5×FAD mice.

Assay [1] concerns LFP oscillations in the visual cortex. Briefly: In vivo electrophysiology: LFP power and 40 Hz entrainment in visual cortex. The arrangement: species or system mouse. Here is the method:
Next, it was aimed to understand how these treatments impacted the LFP oscillations and neuronal action potentials. First, in vivo awake animal electrophysiology was performed using high-density linear probes and verified whether 5×FAD mice with reduced microglia by Plx3397 treatment can entrain 40 Hz sensory stimulation. […] At the group level gamma stimulation increased gamma but not theta power as expected based on previous findings (2 W ANOVA, groups x frequency, F (1,6)=32.03, P=0.0013) (FIGS. 15A, 15B).
Mice were anaesthetized with isoflurane, restrained in a stereotactic apparatus and craniotomies were made exposing the visual cortex (AP: −3.2 & ML: +2.5). […] The reference electrode was targeted to the white matter tract above the hippocampus. Mice were allowed to recover for a period of 4 days.
Following a 2-3-day habitation period for the recording, recordings commenced with the animal allowed to move freely in their home cages. Data were acquired using Neuralynx SX system (Neuralynx, Bozeman, Mont., USA) and signals were sampled at 32,000 Hz. The position of animals was tracked using red light-emitting diodes affixed to the probes. At the conclusion of the experiment, mice underwent terminal anesthesia and electrode positions were marked by electrolytic lesioning of brain tissue with […] current for 10 s through each electrode individually, to confirm their anatomical location.
LFPs were first filtered to the Nyquist frequency of the target sampling rate then downsampled to 1000 Hz. Power spectral analyses were performed using the pwelch function in MATLAB using a 500 ms time window with a 50% overlap.
Mice were anaesthetized with isoflurane, restrained in a stereotactic apparatus and craniotomies were made exposing the visual cortex. Specifically, a 2×2 mm piece of skull was removed using a dental drill, which was above the V1 (stereotaxic 826 coordinates relative to bregma; AP −3.2; ML+2.5); during this entire procedure, the dura was kept intact and moist with saline. Following the skull removal from above both the right V1, two additional drilling holes above the frontal cortex were made and two skull screws were placed. […] The probe was grounded to skull screw above the cerebellum. Petroleum jelly (Vaseline, 100% white petrolatum) was gently applied on the cranial window without touching the probe/electrodes, which protected both the brain and probe/electrode. Next, the probe was further lowered and/or adjusted to reach the target depth. Finally, the probe was cemented on the skull with dental cements, first with a metabond (Parkell, C&B Metabond Quick Adhesive Cement System, #836 SKU:S380) followed by a dental cement from Steolting (#51459). Mice were allowed to recover for a period of 4 days.
Data analyses: LFPs were first filtered to the Nyquist frequency of the target sampling rate then down-sampled to 1000 Hz. Power spectral analyses were performed using the pwelch function in MATLAB using a 500 ms time window with a 50% overlap.
Time-frequency representation of LFP: The LFP data were down sampled to 1,000 Hz. For the calculation of the wavelet power spectrum, the continuous wavelet transforms (CWT) was applied to the LFP using complex Morlet wavelets returning amplitudes at 226 intervals between 1-100 Hz. CWT based wavelet power spectrum was shown in FIG. 21A, FIG. 26C, and FIG. 27C. For visualizing 40 Hz entrainment at finer frequency resolution, multitaper spectral analysis using Chronux toolbox was used.

Turning to `FC(F)(F)c1ccc(CNc2ccc(Cc3c[nH]c4ncc(Cl)cc34)cn2)cn1` [Plx3397, Pexidartinib], in the assay on D54D2 positive amyloid (hippocampus, chronic Plx3397 vs control), the amyloid result was “did not affect”. Moreover, the “amyloid levels (D54D2 positive amyloid signal)” value in the assay on D54D2 positive amyloid (visual cortex, chronic Plx3397, not affected vs control) was determined as 9894±1181 au. The “entrainment of 40 Hz sensory stimulation” value in assay [1] (5×FAD mice with microglia reduced by Plx3397, awake recording) is recorded as “can indeed entrain 40 Hz”. Further, the LFP spectral power result in assay [1] (5×FAD mice, Plx3397 diet 50 days vs control) is on record as “no significant difference”. Moreover, the “time-resolved LFP gamma and theta power” value in assay [1] (5×FAD mice, chronic Plx3397 administration) was “elevated power of gamma and theta that occur incongruently”. Further, in assay [1] (5×FAD mice, untreated vs Plx3397 treated), the gamma response latency result was “comparable”. For the same compound, the “power of 40 Hz entrainment compared to control 5×FAD mice” value in assay [1] (Plx3397 administered 5×FAD mice, acute 40 Hz stimulation) is “higher”. Moreover, in assay [1] (Plx3397 treated 5×FAD mice during acute 40 Hz visual stimulation), the aberrant theta-bursts result is “reduced”.

Values taken from patent US20230181905A1, “Systems, Devices, and Methods for Enhancing the Neuroprotective Effects of Non-Invasive Gamma Stimulation with Pharmacological Agents” (Massachusetts Institute of Technology, priority 2021, published 2023).
